Measured values taken from PubChem BioAssay AID330 (DTP/NCI, 2004).
“And” between values parts separate entries of the source, which are not always exact repeats. Equal entries are not always repeated. Toxic doses and inconclusive results are not listed.

Tested on: P388 leukemia ip, CD2F1 mice, survival T/C
Experiment: NCI In Vivo Anticancer Drug Screen. Data for tumor model P388 Leukemia (intraperitoneal) in CD2F1 (CDF1) mice
Conditions: endpoint: median survival time, higher = longer survival
Outline: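 Mice carrying the transplanted tumor received test compound or vehicle. Survival was recorded in each group, and the value is the treated-group measurement divided by that of the vehicle-treated control group.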

[1] = dose: 25.0 mg/kg/injection, schedule: Q01DX001 (ip), vehicle: saline with Tween-80
[2] = dose: 50.0 mg/kg/injection, schedule: Q01DX001 (ip), vehicle: saline with Tween-80
[3] = dose: 100.0 mg/kg/injection, schedule: Q01DX001 (ip), vehicle: saline with Tween-80
[4] = dose: 50.0 mg/kg/injection, schedule: Q01DX005 (ip), vehicle: Klucel (hydroxypropylcellulose) (HPC)
[5] = dose: 100.0 mg/kg/injection, schedule: Q01DX005 (ip), vehicle: Klucel (hydroxypropylcellulose) (HPC)
[6] = dose: 200.0 mg/kg/injection, schedule: Q01DX005 (ip), vehicle: Klucel (hydroxypropylcellulose) (HPC)
[7] = dose: 50.0 mg/kg/injection, schedule: Q01DX009 (ip), vehicle: saline with Tween-80
[8] = dose: 100.0 mg/kg/injection, schedule: Q01DX009 (ip), vehicle: saline with Tween-80
[9] = dose: 200.0 mg/kg/injection, schedule: Q01DX009 (ip), vehicle: saline with Tween-80
[10] = dose: 12.5 mg/kg/injection, schedule: Q01DX009 (ip), vehicle: saline with Tween-80
[11] = dose: 25.0 mg/kg/injection, schedule: Q01DX009 (ip), vehicle: saline with Tween-80
[12] = dose: 60.0 mg/kg/injection, schedule: Q01DX005 (ip), vehicle: saline with Tween-80
[13] = dose: 120.0 mg/kg/injection, schedule: Q01DX005 (ip), vehicle: saline with Tween-80
[14] = dose: 240.0 mg/kg/injection, schedule: Q01DX005 (ip), vehicle: saline with Tween-80
[15] = dose: 60.0 mg/kg/injection, schedule: Q01DX005 (ip), vehicle: saline
[16] = dose: 120.0 mg/kg/injection, schedule: Q01DX005 (ip), vehicle: saline
[17] = dose: 60.0 mg/kg/injection, schedule: Q01DX005 (ip), vehicle: Klucel (hydroxypropylcellulose) (HPC)
[18] = dose: 120.0 mg/kg/injection, schedule: Q01DX005 (ip), vehicle: Klucel (hydroxypropylcellulose) (HPC)
[19] = dose: 240.0 mg/kg/injection, schedule: Q01DX005 (ip), vehicle: Klucel (hydroxypropylcellulose) (HPC)
[20] = dose: 240.0 mg/kg/injection, schedule: Q01DX005 (ip), vehicle: saline

O=C(CC(c1ccccc1)C(C(=O)O)c1ccccc1)c1ccccc1 (centres undefined)
T/C [1]: 92 % of control | T/C [2]: 92 % of control | T/C [3]: 87 % of control | T/C (dose: 200.0 mg/kg/injection, schedule: Q01DX001 (ip), vehicle: saline with Tween-80): 86 % of control

Cc1ccc(NC(=O)NNC(=O)CSC2CCc3ccccc32)c(C)c1 (centres undefined)
T/C [4]: 92 % of control | T/C [5]: 92 % of control | T/C [6]: 90 % of control

C=C1CCN(c2ccc(N3CCC(=C)C3=O)cc2)C1=O
T/C (dose: 3.12 mg/kg/injection, schedule: Q01DX009 (ip), vehicle: saline + alcohol): 88 % of control | T/C (dose: 6.25 mg/kg/injection, schedule: Q01DX009 (ip), vehicle: saline + alcohol): 100 % of control | T/C (dose: 25.0 mg/kg/injection, schedule: Q01DX009 (ip), vehicle: saline + alcohol): 88 % of control | T/C (dose: 50.0 mg/kg/injection, schedule: Q01DX009 (ip), vehicle: saline + alcohol): 88 % of control

O=C1C=CC2(CC(O)OC3=C2C(=O)c2oc4cc(O)c(O)cc4c2C3=O)O1 (centres undefined)
T/C (dose: 10.0 mg/kg/injection, schedule: Q01DX009 (ip), vehicle: Klucel (hydroxypropylcellulose) (HPC)): 102 % of control | T/C (dose: 20.0 mg/kg/injection, schedule: Q01DX009 (ip), vehicle: Klucel (hydroxypropylcellulose) (HPC)): 109 % of control | T/C (dose: 40.0 mg/kg/injection, schedule: Q01DX009 (ip), vehicle: Klucel (hydroxypropylcellulose) (HPC)): 105 % of control | T/C (dose: 80.0 mg/kg/injection, schedule: Q01DX009 (ip), vehicle: Klucel (hydroxypropylcellulose) (HPC)): 111 % of control

O=C(NC1CCCCC1)O/N=C/c1cccnc1
T/C [7]: 101 % of control | T/C [8]: 98 % of control | T/C [9]: 93 % of control

CCCCCCCCCCCCCCCCOc1ccc(/C=N/Nc2ccccc2)cc1OC
T/C [7]: 88 % of control | T/C [8]: 93 % of control

COc1ccc2c(c1)CCC1C2CCC2(C)/C(=N/O)C3OC3C12 (centres undefined)
T/C [10]: 94 % of control and 95 % of control | T/C [11]: 110 % of control and 94 % of control | T/C [7]: 101 % of control and 94 % of control | T/C [8]: 101 % of control and 94 % of control

Cc1c([N+](=O)[O-])oc2ccc3ccccc3c12
T/C [12]: 113 % of control | T/C [13]: 94 % of control | T/C [14]: 107 % of control

COc1cc([N+](=O)[O-])c(OC)c2c(=O)[nH]c(=O)[nH]c12
T/C (dose: 6.25 mg/kg/injection, schedule: Q01DX005 (ip), vehicle: Klucel (hydroxypropylcellulose) (HPC)): 98 % of control | T/C (dose: 12.5 mg/kg/injection, schedule: Q01DX005 (ip), vehicle: Klucel (hydroxypropylcellulose) (HPC)): 90 % of control

CC(C)CC(C)NC(=O)Nc1ccc(Cc2ccc(NC(=O)NC(C)CC(C)C)cc2)cc1 (centres undefined)
T/C (dose: 50.0 mg/kg/injection, schedule: Q01DX009 (ip), vehicle: Klucel (hydroxypropylcellulose) (HPC)): 96 % of control | T/C (dose: 100.0 mg/kg/injection, schedule: Q01DX009 (ip), vehicle: Klucel (hydroxypropylcellulose) (HPC)): 97 % of control | T/C (dose: 200.0 mg/kg/injection, schedule: Q01DX009 (ip), vehicle: Klucel (hydroxypropylcellulose) (HPC)): 93 % of control

COC(=O)C1C(O)C(C)C(O)C(C)(O)/C=C/C=C(C)C(=O)Nc2c(C)c(OC(C)=O)c3c(c2O)C(=O)C(C)=C2OCOC(=C23)C(C)=CC(C)(O)C(O)C(C)C1OC(C)=O (centres undefined)
T/C [12]: 95 % of control | T/C [13]: 105 % of control | T/C [14]: 108 % of control

COC(=O)C1CC(O)CC(C(=O)OC)O1 (centres undefined)
T/C [15]: 96 % of control | T/C [16]: 90 % of control

CCSc1nc(C)cc(Cl)n1
T/C (dose: 50.0 mg/kg/injection, schedule: Q04DX003 (ip), vehicle: saline with Tween-80): 100 % of control | T/C (dose: 100.0 mg/kg/injection, schedule: Q04DX003 (ip), vehicle: saline with Tween-80): 100 % of control | T/C (dose: 200.0 mg/kg/injection, schedule: Q04DX003 (ip), vehicle: saline with Tween-80): 113 % of control

CC1CC1(C1C=CCCC1)C1C=CCCC1 (centres undefined)
T/C (dose: 50.0 mg/kg/injection, schedule: Q01DX005 (ip), vehicle: saline with Tween-80): 100 % of control | T/C (dose: 100.0 mg/kg/injection, schedule: Q01DX005 (ip), vehicle: saline with Tween-80): 100 % of control | T/C (dose: 200.0 mg/kg/injection, schedule: Q01DX005 (ip), vehicle: saline with Tween-80): 108 % of control

O=Cc1ccc(C(Cl)(Cl)Cl)cc1
T/C [7]: 123 % of control | T/C (dose: 264.0 mg/kg/injection, schedule: Q04DX003 (ip), vehicle: saline with Tween-80): 109 % of control | T/C (dose: 400.0 mg/kg/injection, schedule: Q04DX003 (ip), vehicle: saline with Tween-80): 159 % of control

O=CNc1cc(NC=O)ncn1
T/C (dose: 15.0 mg/kg/injection, schedule: Q01DX009 (ip), vehicle: saline with Tween-80): 99 % of control | T/C (dose: 30.0 mg/kg/injection, schedule: Q01DX009 (ip), vehicle: saline with Tween-80): 97 % of control | T/C (dose: 60.0 mg/kg/injection, schedule: Q01DX009 (ip), vehicle: saline with Tween-80): 103 % of control

CC(C)(C)c1cc(C(C)(C)O)c2c(c1)C(C)(C)OS2(=O)=O
T/C (dose: 100.0 mg/kg/injection, schedule: Q04DX002 (ip), vehicle: Klucel (hydroxypropylcellulose) (HPC)): 96 % of control | T/C (dose: 200.0 mg/kg/injection, schedule: Q04DX002 (ip), vehicle: Klucel (hydroxypropylcellulose) (HPC)): 87 % of control | T/C (dose: 400.0 mg/kg/injection, schedule: Q04DX002 (ip), vehicle: Klucel (hydroxypropylcellulose) (HPC)): 97 % of control

CCOC(=O)C1C(C)=CC2=Nc3ccccc3NC(=O)C2C1c1ccccc1 (centres undefined)
T/C (dose: 25.0 mg/kg/injection, schedule: Q01DX005 (ip), vehicle: Klucel (hydroxypropylcellulose) (HPC)): 104 % of control | T/C [4]: 106 % of control

COC(=O)C(Sc1ccc(Cl)cc1)C1SC(=S)N(C)C1=O (centres undefined)
T/C [10]: 96 % of control | T/C [11]: 116 % of control and 88 % of control | T/C [7]: 104 % of control and 112 % of control | T/C [8]: 103 % of control and 107 % of control

COc1cccc(/C=N/N(C)c2c([N+](=O)[O-])cc(C(F)(F)F)cc2[N+](=O)[O-])c1O
T/C [17]: 93 % of control | T/C [18]: 92 % of control | T/C [19]: 87 % of control

O=C1CSC(c2ccccc2Cl)N1c1nncs1 (centres undefined)
T/C [12]: 103 % of control | T/C [13]: 98 % of control | T/C [14]: 104 % of control

Fc1cccc2c(SCCCCCCSc3c4ccccc4nc4c(F)cccc34)c3ccccc3nc12
T/C [17]: 89 % of control | T/C [18]: 89 % of control | T/C [19]: 90 % of control

CC(C)=CCC(/C=N/N=C(N)N)C(C)C (centres undefined)
T/C (dose: 6.25 mg/kg/injection, schedule: Q01DX005 (ip), vehicle: suspension in saline): 96 % of control | T/C (dose: 12.5 mg/kg/injection, schedule: Q01DX005 (ip), vehicle: suspension in saline): 97 % of control | T/C (dose: 25.0 mg/kg/injection, schedule: Q01DX005 (ip), vehicle: suspension in saline): 96 % of control

CC1(C)c2ccccc2-c2nc3ccccc3c(N)c2C1O (centres undefined)
T/C [4]: 104 % of control | T/C [5]: 100 % of control | T/C [6]: 104 % of control

COc1ccc2c(=O)c3cc([N+](=O)[O-])ccc3n(C)c2c1
T/C (dose: 12.5 mg/kg/injection, schedule: Q01DX001 (ip), vehicle: saline with Tween-80): 100 % of control | T/C [1]: 97 % of control | T/C [2]: 94 % of control | T/C [3]: 94 % of control

Cc1ncc2c(c1O)COC2C (centres undefined)
T/C [15]: 100 % of control | T/C [16]: 97 % of control | T/C [20]: 99 % of control

CC(=C1N=c2ccccc2=N1)c1[nH]c(O)c2ccccc12
T/C [7]: 95 % of control | T/C [8]: 90 % of control | T/C [9]: 96 % of control

CC(=O)N(O)C(C)=O
T/C (dose: 50.0 mg/kg/injection, schedule: Q01DX005 (ip), vehicle: saline): 100 % of control | T/C (dose: 100.0 mg/kg/injection, schedule: Q01DX005 (ip), vehicle: saline): 104 % of control | T/C (dose: 200.0 mg/kg/injection, schedule: Q01DX005 (ip), vehicle: saline): 107 % of control

Cc1c(C(=O)NCCN(C)C)n(C)c(=O)c2ccccc12
T/C [15]: 98 % of control | T/C [16]: 93 % of control | T/C [20]: 94 % of control
